According to PMC4225009, “Structure-activity-relationship study of N-acyl-N-phenylpiperazines as potential inhibitors of the Excitatory Amino Acid Transporters (EAATs): improving the potency of a micromolar screening Hit is not truism” (SpringerPlus, 2013):
Where two headings read alike, the source gives them in different places.

Legend:
Assay type in all cases: cell-based
[1] = target: T1, human EAAT2 (Homo sapiens, UniProt P43004); experiment: [3H]-D-aspartate uptake assay at HEK293 cells stably expressing human EAAT2
T1 construct: expressed in transfected cells
T1 sequence (P43004 whole entry): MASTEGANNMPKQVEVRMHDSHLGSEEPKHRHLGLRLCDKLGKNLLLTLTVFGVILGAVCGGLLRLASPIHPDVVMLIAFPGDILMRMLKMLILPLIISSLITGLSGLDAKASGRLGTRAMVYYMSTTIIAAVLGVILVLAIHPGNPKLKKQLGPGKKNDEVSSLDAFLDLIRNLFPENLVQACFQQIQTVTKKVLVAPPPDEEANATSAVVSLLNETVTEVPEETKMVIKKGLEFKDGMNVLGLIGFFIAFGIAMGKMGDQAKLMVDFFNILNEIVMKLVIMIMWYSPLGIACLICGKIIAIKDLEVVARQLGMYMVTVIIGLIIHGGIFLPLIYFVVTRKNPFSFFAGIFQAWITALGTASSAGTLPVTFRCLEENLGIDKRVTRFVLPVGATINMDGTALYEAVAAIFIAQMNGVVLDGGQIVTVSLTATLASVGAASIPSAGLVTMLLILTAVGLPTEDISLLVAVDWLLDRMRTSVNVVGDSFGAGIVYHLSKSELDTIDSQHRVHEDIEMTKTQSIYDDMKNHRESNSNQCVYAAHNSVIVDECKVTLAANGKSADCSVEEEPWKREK
Excerpt: (§1) In total, […] piperazine analogs 2.1-2.40 and 3.1-3.12 were characterized pharmacologically at stable HEK293 cells expressing human EAAT1-3 in a [^3H]-D-aspartate uptake assay, (Jensen & Bräuner-Osborne [2004]) and the results are summarized in Table 1 and Table 2. […] Usually, such findings would lead to the conclusion that the bicyclo-[2.2.1]-heptanyl group occupies a promiscuous hydrophobic pocket, which could be optimized for increased potency. However, upon increasing or decreasing the hydrophobic bulk and/or flexibility, a clear drop in potency was observed (analogs 2.1-2.17, Table 1). […] These findings could open up for the hypothesis that the pocket is indeed not hydrophobic but instead hydrophilic in nature. Upon binding of the hydrophobic alkane group, water molecules are forced out and ligand binding is entropically driven rather than enthalpically. Thus analogs 2.18-2.31, which comprise a hydrophobic group, could be potential inhibitors.
(§2) Analogs 2.22-2.31, 2.36-2.40, 3.3, 3.4, 3.6 and 3.12 were obtained as 5 mg portions pre-dissolved in DMSO from ChemBridge corporation and used directly in the [3H]-Asp-uptake assay.

[2] = target: T2, human EAAT3 (Homo sapiens, UniProt P43005); experiment: [3H]-D-aspartate uptake assay at HEK293 cells stably expressing human EAAT3; conditions: for EAAT3 pIC50 ± S.E.M.: value in brackets, Table 1
T2 construct: expressed in transfected cells
T2 sequence (P43005 1-524): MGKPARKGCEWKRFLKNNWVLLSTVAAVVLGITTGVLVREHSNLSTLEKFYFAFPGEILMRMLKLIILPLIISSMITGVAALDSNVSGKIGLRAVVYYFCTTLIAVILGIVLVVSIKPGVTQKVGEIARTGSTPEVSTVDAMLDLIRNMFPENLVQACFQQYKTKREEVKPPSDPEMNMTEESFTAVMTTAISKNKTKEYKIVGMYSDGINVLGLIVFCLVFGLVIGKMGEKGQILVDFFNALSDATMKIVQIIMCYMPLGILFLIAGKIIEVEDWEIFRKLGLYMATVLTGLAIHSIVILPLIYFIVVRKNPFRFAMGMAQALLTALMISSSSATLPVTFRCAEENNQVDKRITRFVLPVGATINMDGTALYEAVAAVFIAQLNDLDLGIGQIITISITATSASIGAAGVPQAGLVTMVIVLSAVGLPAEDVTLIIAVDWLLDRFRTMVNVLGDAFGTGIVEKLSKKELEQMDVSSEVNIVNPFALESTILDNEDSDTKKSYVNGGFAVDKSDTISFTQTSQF
Excerpt: as §1, §2

[3] = test system: human EAAT1-3; experiment: [3H]-D-aspartate uptake assay, statements made for EAAT1-3 together; conditions: HEK293 cells expressing human EAAT1-3, [3H]-D-aspartate uptake
Excerpt: as §1, §2

[4] = target: T3, human EAAT1 (Homo sapiens, UniProt P43003); experiment: [3H]-D-aspartate uptake assay at HEK293 cells stably expressing human EAAT1
T3 construct: expressed in transfected cells
T3 sequence (P43003 whole entry): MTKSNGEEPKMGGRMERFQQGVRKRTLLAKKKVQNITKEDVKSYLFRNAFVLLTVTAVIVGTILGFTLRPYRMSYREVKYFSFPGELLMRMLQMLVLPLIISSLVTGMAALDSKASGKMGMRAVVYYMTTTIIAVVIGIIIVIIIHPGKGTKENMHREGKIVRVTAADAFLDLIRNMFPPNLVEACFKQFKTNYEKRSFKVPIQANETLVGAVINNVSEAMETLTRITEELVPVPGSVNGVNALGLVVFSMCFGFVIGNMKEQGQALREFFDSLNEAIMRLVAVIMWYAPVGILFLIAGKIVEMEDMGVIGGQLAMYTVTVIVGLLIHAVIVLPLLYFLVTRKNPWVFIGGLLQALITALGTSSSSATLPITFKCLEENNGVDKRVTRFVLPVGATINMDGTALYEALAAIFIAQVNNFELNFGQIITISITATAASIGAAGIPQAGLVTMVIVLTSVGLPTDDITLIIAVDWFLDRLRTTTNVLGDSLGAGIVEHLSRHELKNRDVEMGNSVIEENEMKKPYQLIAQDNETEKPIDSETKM
Excerpt: as §1, §2

[5] = D-aspartate uptake, HEK293 cells stably expressing human EAAT2, analogs 3.1-3.12 (Table 2), read-out: EAAT2 IC50
[6] = D-aspartate uptake, HEK293 cells stably expressing human EAAT3, analogs 3.1-3.12 (Table 2), read-out: EAAT3 IC50
[7] = D-aspartate uptake, HEK293 cells stably expressing human EAAT1, analogs 3.1-3.12 (Table 2), read-out: EAAT1 IC50
[8] = [3H]-D-aspartate uptake, HEK293 cells stably expressing human EAAT2, analogs 1 and 2.1-2.40 (Table 1), read-out: EAAT2 IC50
[9] = [3H]-D-aspartate uptake, HEK293 cells stably expressing human EAAT1, analogs 1 and 2.1-2.40 (Table 1), read-out: EAAT1 IC50
[10] = [3H]-D-aspartate uptake, HEK293 cells stably expressing human EAAT3, analogs 1 and 2.1-2.40 (Table 1), read-out: EAAT3 IC50

| SMILES | IC50 [1] | IC50 [2] | IC50 [4] | IC50 [1, 8] | IC50 [4, 9] | IC50 [2, 10] | further results |
| --- | --- | --- | --- | --- | --- | --- | --- |
| O=C(C1CC2CCC1C2)N1CCN(c2ccccc2C(F)(F)F)CC1 (racemic) [(±)-endo-exo-3.5, (±)-endo-exo-Bicyclo[2.2.1]heptan-2-yl(4-(2-(trifluoromethyl)phenyl)piperazin-1-yl)methanone] | – | – | – | – | – | – | IC50 [1, 5]: > 300 µM; IC50 [2, 6]: > 300 µM; inhibitory activity at EAAT1-3 (in words) [3]: loss of inhibitory activity; IC50 [4, 7]: ~300 µM |
| O=C(c1cccc2ccccc12)N1CCN(c2cccc(C(F)(F)F)c2)CC1 [2.15, Naphthalen-1-yl(4-(3-(trifluoromethyl)phenyl)piperazin-1-yl)methanone] | > 300 µM | > 300 µM | > 300 µM | – | – | – | – |
| O=C(C1CC2CCC1C2)N1CCN(c2cccc(C(F)(F)F)c2)CC1 (mixture of isomers) [(±)-exo-1] | – | – | – | 40 µM | 10 µM | – | IC50 ([1]; value in brackets, Table 1, read-out: EAAT2 pIC50 ± S.E.M. (converted)): 36.3 µM; inhibitory activity at EAAT1-3 (in words) [3]: IC50 values at the three transporters in the mid-micromolar range; IC50 ([4]; value in brackets, Table 1, read-out: EAAT1 pIC50 ± S.E.M. (converted)): 9.33 µM |
| COc1cccc(N2CCN(C(=O)C3CC4CCC3C4)CC2)c1 (racemic) [(±)-endo-exo-3.10, (±)-endo-exo-Bicyclo[2.2.1]heptan-2-yl(4-(3-methoxyphenyl)piperazin-1-yl)methanone] | – | – | – | – | – | – | IC50 [1, 5]: > 300 µM; IC50 [2, 6]: > 300 µM; IC50 [4, 7]: > 300 µM |
| O=C(C1CCCC1)N1CCN(c2cccc(C(F)(F)F)c2)CC1 [2.4, Cyclopentyl(4-(3-(trifluoromethyl)phenyl)piperazin-1-yl)methanone] | > 300 µM | > 300 µM | > 300 µM | – | – | – | – |
| CC(C)(C)C(=O)N1CCN(c2cccc(C(F)(F)F)c2)CC1 [2.6, 2,2-Dimethyl-1-(4-(3-(trifluoromethyl)phenyl)piperazin-1-yl)propan-1-one] | > 300 µM | > 300 µM | > 1000 µM | – | – | – | – |
| O=C(C1CC2CCC1C2)N1CCN(c2ccc(F)cc2F)CC1 (racemic) [(±)-endo-exo-3.11, (±)-endo-exo-Bicyclo[2.2.1]heptan-2-yl(4-(2,4-difluorophenyl)piperazin-1-yl)methanone] | – | – | – | – | – | – | IC50 [1, 5]: > 300 µM; IC50 [2, 6]: > 300 µM; IC50 [4, 7]: > 300 µM |
| O=C(C1CC2CCC1C2)N1CCN(c2cccc(Cl)c2)CC1 (racemic) [(±)-endo-exo-3.7, (±)-endo-exo-Bicyclo[2.2.1]heptan-2-yl(4-(3-chlorophenyl)piperazin-1-yl)methanone] | – | – | – | – | – | – | IC50 [1, 5]: ~300 µM; IC50 [2, 6]: > 300 µM; IC50 [4, 7]: ~300 µM |
| O=C(C1CC1)N1CCN(c2cccc(C(F)(F)F)c2)CC1 [2.5, Cyclopropyl(4-(3-(trifluoromethyl)phenyl)piperazin-1-yl)methanone] | – | – | – | > 300 µM | > 300 µM | > 300 µM | – |
| FC(F)(F)c1cccc(N2CCN(Cc3ccccc3)CC2)c1 [2.35, 1-Benzyl-4-(3-(trifluoromethyl)phenyl)piperazine] | > 300 µM | > 1000 µM | > 300 µM | – | – | – | – |
| O=C([C@@H]1C[C@@H]2CC[C@H]1C2)N1CCN(c2cccc(C(F)(F)F)c2)CC1 (racemic) [(±)-endo-1, (±)-endo-Bicyclo[2.2.1]heptan-2-yl(4-(3-(trifluoromethyl)phenyl)piperazin-1-yl)methanone] | – | – | – | 32 µM | 14 µM | 10 µM | EAAT2 pIC50 ± S.E.M. ([1]; value in brackets, Table 1): 4.52 ± 0.12; EAAT3 pIC50 ± S.E.M. [2]: 5.04 ± 0.13; inhibitory activity at EAAT1-3 (in words) [3]: inhibitory potency in the mid-micromolar range; EAAT1 pIC50 ± S.E.M. ([4]; value in brackets, Table 1): 4.88 ± 0.09 |
| Nc1ccc(C(=O)N2CCN(c3cccc(C(F)(F)F)c3)CC2)cc1 [2.18, 4-Aminophenyl-(4-(3-(trifluoromethyl)phenyl)piperazin-1-yl)methanone] | > 300 µM | > 300 µM | > 300 µM | – | – | – | – |
| CC(C)(C)CC(=O)N1CCN(c2cccc(C(F)(F)F)c2)CC1 [2.9, 3,3-Dimethyl-1-(4-(3-(trifluoromethyl)phenyl)piperazin-1-yl)butan-1-one] | – | – | – | > 300 µM | > 300 µM | > 300 µM | – |
| CC(C)CC(=O)N1CCN(c2cccc(C(F)(F)F)c2)CC1 [2.8, 3-Methyl-1-(4-(3-(trifluoromethyl)phenyl)piperazin-1-yl)butan-1-one] | – | – | – | > 300 µM | > 300 µM | > 300 µM | – |
| O=C(Cc1ccccc1)N1CCN(c2cccc(C(F)(F)F)c2)CC1 [2.17, 1-(4-(3-(Trifluoromethyl)phenyl)piperazin-1-yl)-2-phenylethanone] | > 300 µM | > 1000 µM | > 300 µM | – | – | – | – |
| O=C(c1cccs1)N1CCN(c2cccc(C(F)(F)F)c2)CC1 [2.16, Thiophen-2-yl(4-(3-(trifluoromethyl)phenyl)piperazin-1-yl)methanone] | > 100 µM | > 100 µM | > 100 µM | – | – | – | – |
| CC(=O)N1CCN(c2cccc(C(F)(F)F)c2)CC1 [2.7, 1-(4-(3-(Trifluoromethyl)phenyl)piperazin-1-yl)ethanone] | – | – | – | > 100 µM | > 1000 µM | > 100 µM | – |
| FC(F)(F)c1cccc(N2CCN(CC3CC4CCC3C4)CC2)c1 (mixture of isomers) [(±)-endo-exo-2.34, (±)-endo-exo-Bicyclo[2.2.1]heptan-2-ylmethyl)-4-(3-(trifluoromethyl)phenyl)piperazine] | – | – | – | > 300 µM | > 300 µM | > 300 µM | – |
| CC(C)CCC(=O)N1CCN(c2cccc(C(F)(F)F)c2)CC1 [2.10, 4-Methyl-1-(4-(3-(trifluoromethyl)phenyl)piperazin-1-yl)pentan-1-one] | – | – | – | > 300 µM | > 300 µM | > 300 µM | – |
| NCC(=O)N1CCN(c2cccc(C(F)(F)F)c2)CC1 [2.20, 2-Amino-1-(4-(3-(trifluoromethyl)phenyl)piperazin-1-yl)ethanone] | > 300 µM | > 300 µM | > 300 µM | – | – | – | – |
| O=C(C1CC2CCC1C2)N1CCN(c2cccc(C(F)(F)F)c2)CC1 (racemic) [(±)-endo-exo-1, (±)-endo-exo-Bicyclo[2.2.1]heptan-2-yl(4-(3-(trifluoromethyl)phenyl)piperazin-1-yl)methanone] | – | – | – | 42 µM | 14 µM | 14 µM | EAAT2 pIC50 ± S.E.M. ([1]; value in brackets, Table 1): 4.42 ± 0.11; EAAT3 pIC50 ± S.E.M. [2]: 4.94 ± 0.16; EAAT1 pIC50 ± S.E.M. ([4]; value in brackets, Table 1): 4.87 ± 0.08 |
| O=C(C1CC2CCC1CC2)N1CCN(c2cccc(C(F)(F)F)c2)CC1 (stereo not shown) [2.1, Bicyclo[2.2.2]octan-2-yl(4-(3-(trifluoromethyl)phenyl)piperazin-1-yl)methanone] | – | – | – | > 300 µM | > 300 µM | > 300 µM | – |
| N#Cc1cccc(N2CCN(C(=O)C3CC4CCC3C4)CC2)c1 (racemic) [(±)-endo-exo-3.9, 3-(4-(bicyclo[2.2.1]heptane-2-carbonyl)piperazin-1-yl)benzonitrile] | – | – | – | – | – | – | IC50 [1, 5]: > 300 µM; IC50 [2, 6]: > 300 µM; IC50 [4, 7]: > 300 µM |
| Nc1cccc(C(=O)N2CCN(c3cccc(C(F)(F)F)c3)CC2)c1 [2.19, 3-Aminophenyl-(4-(3-(trifluoromethyl)phenyl)piperazin-1-yl)methanone] | > 300 µM | > 300 µM | > 300 µM | – | – | – | – |
| O=C(N1CCN(c2cccc(C(F)(F)F)c2)CC1)C12CC3CC(CC(C3)C1)C2 [2.2, Adamantan-1-yl(4-(3-(trifluoromethyl)phenyl)piperazin-1-yl)methanone] | > 300 µM | > 300 µM | > 300 µM | – | – | – | – |
| O=C(c1cccc(Oc2ccccc2)c1)N1CCN(c2cccc(C(F)(F)F)c2)CC1 [2.13, (3-Phenoxyphenyl)(4-(3-(trifluoromethyl)phenyl)piperazin-1-yl)methanone] | – | – | – | > 300 µM | > 300 µM | > 300 µM | – |
